This is an account of results in patent publication US20240116985A1, “STAPLED PEPTIDES AND METHODS THEREOF” (priority 2020, published 2024).

As usually defined, the chromatographic logD is lipophilicity estimated from chromatographic retention. Lower therefore signals a more hydrophilic compound.

One data set in a line: CHI Log D procedure. The class given is physicochemical. The following applies: for chromatographic logD: pH 7.4, CHI Log D; for CHI Log D: pH 7.4.
The target of data set [1] is T1, full-length beta-Catenin (Uniprot ID P35222) (Homo sapiens, UniProt P35222).
T1 construct: 10 nM full-length beta-Catenin (Uniprot ID P35222)
T1 sequence (P35222 1-781): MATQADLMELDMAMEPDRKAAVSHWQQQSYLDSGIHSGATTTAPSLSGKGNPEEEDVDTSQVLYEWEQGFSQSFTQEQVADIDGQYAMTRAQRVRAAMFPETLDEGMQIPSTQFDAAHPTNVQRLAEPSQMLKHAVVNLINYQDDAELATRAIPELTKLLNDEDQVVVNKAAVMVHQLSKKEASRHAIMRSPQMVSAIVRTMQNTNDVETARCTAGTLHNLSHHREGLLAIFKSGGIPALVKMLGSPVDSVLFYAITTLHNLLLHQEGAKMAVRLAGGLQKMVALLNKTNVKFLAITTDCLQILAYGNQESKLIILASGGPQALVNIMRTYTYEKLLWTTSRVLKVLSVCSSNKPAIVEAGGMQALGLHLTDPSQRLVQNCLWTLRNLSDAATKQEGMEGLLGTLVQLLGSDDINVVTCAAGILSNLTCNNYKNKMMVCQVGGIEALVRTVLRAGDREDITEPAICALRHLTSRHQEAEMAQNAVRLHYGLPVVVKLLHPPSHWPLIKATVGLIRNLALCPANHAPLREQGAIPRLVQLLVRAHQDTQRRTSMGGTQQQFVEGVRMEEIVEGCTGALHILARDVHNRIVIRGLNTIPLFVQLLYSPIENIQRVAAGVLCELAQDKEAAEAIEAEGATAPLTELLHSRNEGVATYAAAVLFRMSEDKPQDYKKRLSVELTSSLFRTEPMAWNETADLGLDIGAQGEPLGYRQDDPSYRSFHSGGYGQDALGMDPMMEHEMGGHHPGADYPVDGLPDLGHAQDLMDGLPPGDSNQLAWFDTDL
Briefly: Fluorescence polarization IC50 (beta-catenin / 5FAM-TCF4 10-53 competition). The class given is binding.

Setting [2] is: fluorescence polarization, read-out: beta-Catenin FP IC50.
The mark [3] stands for this setting: fluorescence polarization, beta-catenin, read-out: FP EC50.

Structures are written as SMILES. Like-named read-outs stand apart in the source and are kept apart here.

Consider `CC(=O)N1CCC[C@]12CC=CCCCC1(CCCC=CCCCCCC[C@@](C)(C(=O)N[C@@H](Cc3ccccc3)C(=O)N[C@@H](Cc3cccc4ccc(F)cc34)C(=O)N[C@@H](CCC(N)=O)C(N)=O)NC(=O)[C@H](C(C)C)NC(=O)[C@H](Cc3ccccc3)NC(=O)[C@H](C)NC(=O)[C@H](C)NC(=O)[C@H](CC(=O)O)NC(=O)[C@H](CC(=O)O)NC1=O)NC(=O)[C@H](C)NC(=O)[C@H](CC(=O)O)NC2=O` (stereo partly drawn) [I-368, Ac-PL3-Asp-Ala-B5-Asp-Asp-Ala-Ala-Phe-Val-S8-Phe-7F1NapA-Gln-NH2], for which, in the data set “CHI Log D procedure”, the chromatographic logD was found to be 2.17. Also, in data set [1] (Table E2-1, read-out: beta-Catenin FP IC50), the IC50 was found to be 5 µM.
The compound `CC(=O)N1CCC[C@]12CC=CCCCC1(CCCC=CCCCCCC[C@@](C)(C(=O)N[C@@H](Cc3cc(F)cc(F)c3)C(=O)N[C@@H](Cc3csc4ccccc34)C(=O)N[C@@H](CCC(N)=O)C(N)=O)NC(=O)[C@H](C(C)C)NC(=O)[C@H](Cc3ccccc3)NC(=O)[C@H](C)NC(=O)[C@H](C)NC(=O)[C@H](CCC(=O)O)NC(=O)[C@H](CC(=O)O)NC1=O)NC(=O)[C@H](C)NC(=O)[C@H](CC(=O)O)NC2=O` (stereo partly drawn) [I-394, Ac-PL3-Asp-Ala-B5-Asp-Glu-Ala-Ala-Phe-Val-S8-35FF-BztA-Gln-NH2] yielded a chromatographic logD in the data set “CHI Log D procedure” of 3.86. Moreover, in data set [1] (setting [2]), the IC50 worked out at 5 µM.
Turning to `CC(=O)N1CCC[C@]12CC=CCCCC1(CCCC=CCCCCCC[C@@](C)(C(=O)N[C@@H](Cc3cccc(C)c3)C(=O)N[C@@H](Cc3csc4ccccc34)C(=O)N[C@@H](CCC(N)=O)C(N)=O)NC(=O)[C@H](C(C)C)NC(=O)[C@H](Cc3ccccc3)NC(=O)[C@H](C)NC(=O)[C@H](C)NC(=O)[C@H](CCC(=O)O)NC(=O)[C@H](CC(=O)O)NC1=O)NC(=O)[C@H](C)NC(=O)[C@H](CC(=O)O)NC2=O` (stereo partly drawn) [I-395, Ac-PL3-Asp-Ala-B5-Asp-Glu-Ala-Ala-Phe-Val-S8-3MeF-BztA-Gln-NH2], the chromatographic logD in “CHI Log D procedure” was 4.07. Besides, the IC50 in data set [1] (setting [2]) worked out at 5 µM.
Regarding `CC(=O)N1CCC[C@]12CC=CCCCC1(CCCC=CCCCCCC[C@@](C)(C(=O)N[C@@H](Cc3cccc(F)c3)C(=O)N[C@@H](Cc3csc4ccccc34)C(=O)N[C@@H](CCC(N)=O)C(N)=O)NC(=O)[C@H](C(C)C)NC(=O)[C@H](Cc3ccccc3)NC(=O)[C@H](C)NC(=O)[C@H](C)NC(=O)[C@H](Cc3c[nH]cn3)NC(=O)[C@H](CC(=O)O)NC1=O)NC(=O)[C@H](C)NC(=O)[C@H](CC(=O)O)NC2=O` (stereo partly drawn) [I-396, Ac-PL3-Asp-Ala-B5-Asp-His-Ala-Ala-Phe-Val-S8-3FF-BztA-Gln-NH2], the “CHI Log D” value in “CHI Log D procedure” was 2.819. Further, the IC50 in data set [1] (setting [3]) and in data set [1] (setting [2]) was 3.43 µM throughout.
Take `CC(=O)N1CCC[C@]12CC=CCCCC1(CCCC=CCCCCCC[C@@](C)(C(=O)N[C@@H](Cc3cccc(F)c3)C(=O)N[C@@H](Cc3csc4ccccc34)C(=O)N[C@@H](CCC(N)=O)C(N)=O)NC(=O)[C@H](C(C)C)NC(=O)[C@H](Cc3ccccc3)NC(=O)[C@H](C)NC(=O)[C@H](C)NC(=O)[C@H](Cc3c[nH]cn3)NC(=O)[C@H](CC(=O)O)NC1=O)NC(=O)[C@H](C)NC(=O)[C@H](CC(=O)O)NC2=O` (stereo partly drawn) [I-397, Ac-PL3-Asp-Ala-B5-Asp-His-Ala-Ala-Phe-Val-S8-3FF-BztA-Gln-NH2]: the “CHI Log D” value in the data set “CHI Log D procedure” was 2.828. In addition, the IC50 in data set [1] (setting [3]) and in data set [1] (setting [2]) was 2.23 µM each time.
Regarding `CC(=O)N1CCC[C@]12CC=CCCCC1(CCCC=CCCCCCC[C@@](C)(C(=O)N[C@@H](Cc3cccc(F)c3)C(=O)N[C@@H](Cc3csc4ccccc34)C(=O)N[C@@H](CCC(N)=O)C(N)=O)NC(=O)[C@H](CCC(N)=O)NC(=O)[C@H](Cc3ccccc3)NC(=O)[C@H](C)NC(=O)[C@H](C)NC(=O)[C@H](Cc3c[nH]cn3)NC(=O)[C@H](CC(=O)O)NC1=O)NC(=O)[C@H](C)NC(=O)[C@H](CC(=O)O)NC2=O` (stereo partly drawn) [I-399, Ac-PL3-Asp-Ala-B5-Asp-His-Ala-Ala-Phe-Gln-S8-3FF-BztA-Gln-NH2], the chromatographic logD in the data set “CHI Log D procedure” is 2.52. Moreover, the IC50 in data set [1] (setting [2]) was found to be 2.5 µM.
`CC(=O)N1CCC[C@]12CC=CCCCC1(CCCC=CCOC(=O)N(C)CCC[C@@](C)(C(=O)N[C@@H](Cc3cccc(F)c3)C(=O)N[C@@H](Cc3csc4ccccc34)C(=O)N[C@@H](CCC(N)=O)C(N)=O)NC(=O)[C@H](CCC(N)=O)NC(=O)[C@H](Cc3ccccc3)NC(=O)[C@H](C)NC(=O)[C@H](C)NC(=O)[C@H](Cc3c[nH]cn3)NC(=O)[C@H](CC(=O)O)NC1=O)NC(=O)[C@H](C)NC(=O)[C@H](CC(=O)O)NC2=O` (stereo partly drawn) [I-400, Ac-PL3-Asp-Ala-B5-Asp-His-Ala-Ala-Phe-Gln-SeN-3FF-BztA-Gln-NH2] yielded a chromatographic logD in the data set “CHI Log D procedure” of 1.92. For the same compound, in data set [1] (setting [2]), the IC50 was 3.59 µM.
`CC(=O)N1CCC[C@]12CC=CCCCC1(CCCC=CCCCCCC[C@@](C)(C(=O)N[C@@H](Cc3cccc(F)c3)C(=O)N[C@@H](Cc3csc4ccccc34)C(=O)N[C@@H](CCC(N)=O)C(N)=O)NC(=O)[C@H](CCC(N)=O)NC(=O)[C@H](Cc3cccs3)NC(=O)[C@H](C)NC(=O)[C@H](C)NC(=O)[C@H](CCC(=O)O)NC(=O)[C@H](CC(=O)O)NC1=O)NC(=O)[C@H](C)NC(=O)[C@H](CC(=O)O)NC2=O` (stereo partly drawn) [I-401, Ac-PL3-Asp-Ala-B5-Asp-Glu-Ala-Ala-2Thi-Gln-S8-3FF-BztA-Gln-NH2] came in with a chromatographic logD in the data set “CHI Log D procedure” of 2.28. Further, the IC50 in data set [1] (setting [2]) was 0.134 µM.
With `CC(=O)N1CCC[C@]12CC=CCCCC1(CCCC=CCCCCCC[C@@](C)(C(=O)N[C@@H](Cc3cccc(F)c3)C(=O)N[C@@H](Cc3csc4ccccc34)C(=O)N[C@@H](CCC(N)=O)C(N)=O)NC(=O)[C@H](C(C)C)NC(=O)[C@H](Cc3ccccc3)NC(=O)[C@H](C)NC(=O)[C@H](C)NC(=O)[C@H](Cc3cccs3)NC(=O)[C@H](CC(=O)O)NC1=O)NC(=O)[C@H](C)NC(=O)[C@H](CC(=O)O)NC2=O` (stereo partly drawn) [I-402, Ac-PL3-Asp-Ala-B5-Asp-2Thi-Ala-Ala-Phe-Val-S8-3FF-BztA-Gln-NH2], the chromatographic logD in “CHI Log D procedure” turned out to be 3.39. The IC50 in data set [1] (setting [2]) worked out at 5 µM.
The corresponding values for `CC(=O)N1CCC[C@]12CC=CCCCC1(CCCC=CCCCCCC[C@@](C)(C(=O)N[C@@H](Cc3cccc(F)c3)C(=O)N[C@@H](Cc3csc4ccccc34)C(=O)N[C@@H](CCC(N)=O)C(N)=O)NC(=O)[C@H](C(C)C)NC(=O)[C@H](Cc3ccccc3)NC(=O)[C@H](C)NC(=O)[C@H](C)NC(=O)[C@H](Cc3cn(C)cn3)NC(=O)[C@H](CC(=O)O)NC1=O)NC(=O)[C@H](C)NC(=O)[C@H](CC(=O)O)NC2=O` (stereo partly drawn) [I-403, Ac-PL3-Asp-Ala-B5-Asp-1meH-Ala-Ala-Phe-Val-S8-3FF-BztA-Gln-NH2] are 2.87 and 2.13 µM.
The corresponding values for `CC(=O)N1CCC[C@]12CC=CCCCC1(CCCC=CCCCCCC[C@@](C)(C(=O)N[C@@H](Cc3cccc(F)c3)C(=O)N[C@@H](Cc3csc4ccccc34)C(=O)N[C@@H](CCC(N)=O)C(N)=O)NC(=O)[C@H](CCC(N)=O)NC(=O)[C@H](Cc3cccc(C)c3)NC(=O)[C@H](C)NC(=O)[C@H](C)NC(=O)[C@H](CN(CC(=O)O)CC(F)(F)F)NC(=O)[C@H](CC(=O)O)NC1=O)NC(=O)[C@H](C)NC(=O)[C@H](CC(=O)O)NC2=O` (stereo partly drawn) [I-404, Ac-PL3-Asp-Ala-B5-Asp-TfeGA-Ala-Ala-3MeF-Gln-S8-3FF-BztA-Gln-NH2] are 2.4 and 1.85 µM.
In the same order, the values of `CC(=O)N1CCC[C@]12CC=CCCCC1(CCCC=CCOC(=O)N(C)CCC[C@@](C)(C(=O)N[C@@H](Cc3cccc(F)c3)C(=O)N[C@@H](Cc3csc4ccccc34)C(=O)N[C@@H](CCC(N)=O)C(N)=O)NC(=O)[C@H](CCC(N)=O)NC(=O)[C@H](Cc3cccc(C)c3)NC(=O)[C@H](C)NC(=O)[C@H](C)NC(=O)[C@H](CN(CC(=O)O)CC(F)(F)F)NC(=O)[C@H](CC(=O)O)NC1=O)NC(=O)[C@H](C)NC(=O)[C@H](CC(=O)O)NC2=O` (stereo partly drawn) [I-405, Ac-PL3-Asp-Ala-B5-Asp-TfeGA-Ala-Ala-3MeF-Gln-SeN-3FF-BztA-Gln-NH2] are 1.72 and 3.82 µM.
`CC[C@H](C)[C@@H]1NC(=O)[C@H](CC(=O)O)NC(=O)[C@]2(CC=CCCCC3(CCCC=CCCCCCC[C@@](C)(C(=O)N[C@@H](Cc4cccc(F)c4)C(=O)N[C@@H](Cc4csc5ccccc45)C(=O)N[C@@H](CCC(N)=O)C(N)=O)NC(=O)[C@H](CCC(N)=O)NC(=O)[C@H](Cc4cccs4)NC(=O)[C@H](C)NC(=O)[C@H](C)NC(=O)[C@H](CCC(=O)O)NC(=O)[C@H](CC(=O)O)NC3=O)NC1=O)CCCN2C(C)=O` (stereo partly drawn) [I-412, Ac-PL3-Asp-Ile-B5-Asp-Glu-Ala-Ala-2Thi-Gln-S8-3FF-BztA-Gln-NH2] displayed a chromatographic logD in “CHI Log D procedure” of 2.65. Also, in data set [1] (setting [2]), the IC50 is 0.092 µM.
